Measured values reported in patent US20240309016A1, “MACROCYCLIC HETEROCYCLE COMPOUNDS AND USE THEREOF” (TAKEDA PHARMACEUTICAL COMPANY LIMITED, priority 2023, published 2024).

These compounds were tested against T1, human OX2 receptor (Homo sapiens, UniProt O43614) (assay: Measurement of orexin type 2 receptor agonist activity (Experimental Example 2; Fluo-4 AM calcium fluorescence, FDSS μCELL)). Conditions: compound at 3 μM; CHO cells expressing human OX2 receptor; DMSO = 0%, 10 nM orexin A (human) = 100%.
T1 construct: expressed in transfected cells
T1 sequence (O43614 1-444): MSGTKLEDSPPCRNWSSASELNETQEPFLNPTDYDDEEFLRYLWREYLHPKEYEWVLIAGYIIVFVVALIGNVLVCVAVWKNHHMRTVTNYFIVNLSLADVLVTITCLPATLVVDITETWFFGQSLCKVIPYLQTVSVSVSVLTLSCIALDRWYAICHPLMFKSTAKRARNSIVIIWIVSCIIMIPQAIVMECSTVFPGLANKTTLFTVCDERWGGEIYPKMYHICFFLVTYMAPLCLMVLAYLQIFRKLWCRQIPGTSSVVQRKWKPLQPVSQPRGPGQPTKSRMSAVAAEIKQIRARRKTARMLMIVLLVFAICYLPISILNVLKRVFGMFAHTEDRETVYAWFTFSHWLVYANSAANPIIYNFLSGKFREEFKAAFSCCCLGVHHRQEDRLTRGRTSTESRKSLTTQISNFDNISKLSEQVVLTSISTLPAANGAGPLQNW
Format: cell-based
Protocol: In order to obtain cell clones that stably express human orexin type 2 receptor, human orexin type 2 (residues 1-444, NCBI Reference Sequence: AK314279) was constructed in a pcDNA3.1 (+) vector (Invitrogen) to express in mammalian cells. This plasmid DNA was transfected into CHO-K1 cells by electroporation, and stable clones were obtained by limiting dilution using resistance to G418 as a selection marker.
CHO cells in which human OX2 receptor was forcibly expressed were seeded at 10,000 cells/well into a 384-well black transparent bottom plate (BD falcon), and were incubated at 37° C., 5% CO2 for 1 day after incubation at room temperature for 30 minutes. After removing the cell plate medium, assay buffer containing calcium indicator A (HBSS (Thermo Fisher Scientific), 20 mM HEPES (Thermo Fisher Scientific), 0.1% BSA (Sigma-Aldrich), 2.5 μg/mL Fluo-4 AM (Dojin Kagaku), 0.08% Pluronic F127 (Dojin Kagaku), 1.25 mM probenecid (Dojin Kagaku)) was added at 30 μL/well. After incubation in a 5% CO2 incubator at 37° C. for 30 minutes, it was incubated at room temperature for another 30 minutes. Add 10 μL/well of the test compound diluted with assay buffer B (HBSS, 20 mM HEPES, 0.1% BSA), and use FDSS μCELL (Hamamatsu Photonics) to measure the fluorescence value every 1 second for 1 minute, and then every 2 seconds for 1 minute. It was measured for 1 minute and 40 seconds. The amount of fluorescence value when DMSO is added instead of the test compound is defined as 0%, and the amount of fluorescence value when orexin A (human) (Peptide Institute) with a final concentration of 10 nM is added is defined as 100%. The activity (%) of the test compound was calculated. Table 2-1, 2-2, 2-3, and 2-4 show the activity of each compound at a concentration of 3 μM.

**Q.** Which “OX2R agonist activity (3 μM, %)” value does the source give for `CCS(=O)(=O)N[C@H]1[C@@H](F)CN2C(=O)N(C)Cc3ccc(Cl)c(n3)Oc3cccc(c3)C[C@@H]12` [Example 70, N-[(15aS,16R,17S)-7-chloro-17-fluoro-2-methyl-1-oxo-2,3,15a,16,17,18-hexahydro-1H,15H-4,8-(azeno)-10,14-(metheno)pyrrolo[1,2-j][1,8,10]oxadiazacyclo-heptadecin-16-yl]ethanesulfonamide] here?
**A.** 103%

**Q.** Which “OX2R agonist activity (3 μM, %)” value does the source give for `Cc1ccc2nc1Oc1cccc(c1)C[C@H]1[C@@H](NS(C)(=O)=O)CCN1C(=O)N(C)C2` [Example 40, N-[(15aS,16S)-2,7-dimethyl-1-oxo-2,3,15a,16,17,18-hexahydro-1H,15H-4,8-(azeno)-10,14-(metheno)pyrrolo[1,2-j][1,8,10]oxadiazacyclo-heptadecin-16-yl]methanesulfonamide] here?
**A.** 103%

**Q.** `CCS(=O)(=O)N[C@H]1[C@@H](F)CN2C(=O)CCc3ccc(Cl)c(n3)Oc3cccc(c3F)C[C@@H]12` [Example 82, N-[(1R,2S,19aS)-11-chloro-2,20-difluoro-5-oxo-2,3,6,7,19,19a-hexahydro-1H,5H-12,8-(azeno)-14,18-(metheno)pyrrolo[2,1-h][1,9]oxazacycloheptadecin-1-yl]ethanesulfonamide] was tested. Which “OX2R agonist activity (3 μM, %)” value did it give?
**A.** 101%

**Q.** Which “OX2R agonist activity (3 μM, %)” value does the source give for `Cc1cnc2nc1Oc1cccc(c1F)C[C@H]1[C@@H](NS(C)(=O)=O)C(F)(F)CN1C(=O)[C@@H]1C[C@@H](F)CN21` [Example 74, N-[(2R,16aS,17R,21aS)-2,18,18,22-tetrafluoro-8-methyl-21-oxo-2,3,16a,17,18,19,21,21a-octahydro-1H,16H-5,9-(azeno)-11,15-(metheno)dipyrrolo[1,2-g:1′,2′-j][1,5,7,10]oxatriazacyclo-heptadecin-17-yl]methanesulfonamide] here?
**A.** 96%

**Q.** `CS(=O)(=O)N[C@@H]1[C@@H]2Cc3cccc(c3F)Oc3nc(ccc3Cl)CN(CC(F)F)C(=O)N2CC1(F)F` [Example 60, N-[(15aS,16R)-7-chloro-2-(2,2-difluoroethyl)-17,17,20-trifluoro-1-oxo-2,3,15a,16,17,18-hexahydro-1H,15H-4,8-(azeno)-14,10-(metheno)pyrrolo[1,2-j][1,8,10]oxadiazacyclo-heptadecin-16-yl]methanesulfonamide] was tested. Which “OX2R agonist activity (3 μM, %)” value did it give?
**A.** 104%

**Q.** With `Cc1cnc2nc1Oc1cccc(c1F)C[C@H]1[C@@H](NS(C)(=O)=O)C(F)(F)CN1C(=O)CO2` [Example 77, N-[(15aS,16R)-17,17,20-trifluoro-7-methyl-1-oxo-1,2,15a,16,17,18-hexahydro-15H-4,8-(azeno)-10,14-(metheno)pyrrolo[2,1-n][1,7,3,15]dioxadiazacyclo-heptadecin-16-yl]methanesulfonamide] as the compound, how does the “OX2R agonist activity (3 μM, %)” value read?
**A.** 104%

**Q.** Which “OX2R agonist activity (3 μM, %)” value does the source give for `O=C1NCc2ccc(C(F)F)c(n2)Oc2cccc(c2F)C[C@H]2[C@@H](NS(=O)(=O)C3CC3)[C@@H](F)CN12` [Example 28, N-[(15aS,16R,17S)-7-(difluoromethyl)-17,20-difluoro-1-oxo-2,3,15a,16,17,18-hexahydro-1H,15H-8,4-(azeno)-10,14-(metheno)pyrrolo[1,2-j][1,8,10]oxadiazacyclo-heptadecin-16-yl]cyclopropanesulfonamide] here?
**A.** 94%

**Q.** With `CS(=O)(=O)N[C@H]1[C@@H](F)CN2C(=O)NCc3ccc(Cl)c(n3)Oc3cccc(c3F)C[C@@H]12` [Example 15, N-[(15aS,16R,17S)-7-chloro-17,20-difluoro-1-oxo-2,3,15a,16,17,18-hexahydro-1H,15H-4,8-(azeno)-14,10-(metheno)pyrrolo[1,2-j][1,8,10]oxadiazacyclo-heptadecin-16-yl]methanesulfonamide] as the compound, how does the “OX2R agonist activity (3 μM, %)” value read?
**A.** 104%

**Q.** For `CO[C@@H]1C[C@H]2C(=O)N3CC(F)(F)[C@H](NS(C)(=O)=O)[C@@H]3Cc3cccc(c3F)Oc3nc(ncc3C)N2C1` [Example 83, N-[(2R,16aS,17R,21aS)-18,18,22-trifluoro-2-methoxy-8-methyl-21-oxo-2,3,16a,17,18,19,21,21a-octahydro-1H,16H-5,9-(azeno)-11,15-(metheno)dipyrrolo[1,2-g:1′,2′-j][1,5,7,10]oxatriazacyclo-heptadecin-17-yl]methanesulfonamide], which “OX2R agonist activity (3 μM, %)” value is on record?
**A.** 96%

**Q.** With `CS(=O)(=O)N[C@@H]1[C@@H]2Cc3cccc(c3F)Oc3nc(ccc3C3CC3)CNC(=O)N2CC1(F)F` [Example 88, N-[(15aS,16R)-7-cyclopropyl-17,17,20-trifluoro-1-oxo-2,3,15a,16,17,18-hexahydro-1H,15H-4,8-(azeno)-14,10-(metheno)pyrrolo[1,2-j][1,8,10]oxadiazacyclo-heptadecin-16-yl]methanesulfonamide] as the compound, how does the “OX2R agonist activity (3 μM, %)” value read?
**A.** 109%

**Q.** `CS(=O)(=O)N[C@H]1[C@@H](F)CN2C(=O)NCc3ccc(C(F)F)c(n3)Oc3cccc(c3F)C[C@@H]12` [Example 18, N-[(15aS,16R,17S)-7-(difluoromethyl)-17,20-difluoro-1-oxo-2,3,15a,16,17,18-hexahydro-1H,15H-8,4-(azeno)-10,14-(metheno)pyrrolo[1,2-j][1,8,10]oxadiazacyclo-heptadecin-16-yl]methanesulfonamide] was tested. Which “OX2R agonist activity (3 μM, %)” value did it give?
**A.** 104%

**Q.** Which “OX2R agonist activity (3 μM, %)” value does the source give for `Cc1cnc2nc1Oc1cccc(c1F)C[C@H]1[C@@H](NS(C)(=O)=O)C(F)(F)CN1C(=O)[C@@H]1CCCN21` [Example 59, N-[(16aS,17R,21aS)-18,18,22-trifluoro-8-methyl-21-oxo-2,3,16a,17,18,19,21,21a-octahydro-1H,16H-5,9-(azeno)-11,15-(metheno)dipyrrolo[1,2-g:1′,2′-j][1,5,7,10]oxatriazacyclo-heptadecin-17-yl]methanesulfonamide] here?
**A.** 106%

**Q.** For `CCS(=O)(=O)N[C@H]1[C@@H](F)CN2C(=O)NCc3ccc(Cl)c(c3)Oc3cccc(c3F)C[C@@H]12` [Example 39, N-[(15aS,16R,17S)-7-chloro-17,20-difluoro-1-oxo-2,3,15a,16,17,18-hexahydro-1H,15H-4,8:14,10-di(metheno)pyrrolo[1,2-j][1,8,10]oxadiazacyclo-heptadecin-16-yl]ethanesulfonamide], which “OX2R agonist activity (3 μM, %)” value is on record?
**A.** 105%

**Q.** `CS(=O)(=O)N[C@@H]1[C@@H]2Cc3cccc(c3F)Oc3nc(c(F)cc3Cl)CNC(=O)N2CC1(F)F` [Example 30, N-[(15aS,16R)-7-chloro-5,17,17,20-tetrafluoro-1-oxo-2,3,15a,16,17,18-hexahydro-1H,15H-4,8-(azeno)-14,10-(metheno)pyrrolo[1,2-j][1,8,10]oxadiazacyclo-heptadecin-16-yl]methanesulfonamide] was tested. Which “OX2R agonist activity (3 μM, %)” value did it give?
**A.** 102%

**Q.** How did the “OX2R agonist activity (3 μM, %)” value turn out when `CCS(=O)(=O)N[C@H]1[C@@H](F)CN2C(=O)NCc3ccc(Cl)c(n3)Oc3cccc(c3)C[C@@H]12` [Example 47, N-[(15aS,16R,17S)-7-chloro-17-fluoro-1-oxo-2,3,15a,16,17,18-hexahydro-1H,15H-4,8-(azeno)-14,10-(metheno)pyrrolo[1,2-j][1,8,10]oxadiazacyclo-heptadecin-16-yl]ethanesulfonamide] was run?
**A.** 92%
